Assays:
HO-1 = experiment: qPCR mRNA expression in HepG2-C8 cells; type: cell-based, human; settings: 25 μM, 6 h, vs 0.1% DMSO
Procedure: (§1) The cells were treated similarly to the NITS and ARE-luciferase assays described above using 10% FBS medium. The incubation of the compounds with the cells was terminated 6 h later. The mRNA expression was evaluated utilizing a quantitative real-time polymerase chain reaction (qPCR). An RNeasy kit from Qiagen was used for RNA extraction (Valencia, Calif.). The total RNA was reverse-transcribed to cDNA by TaqMan Reverse Transcription Reagents (Applied Biosystems Inc, Foster City, Calif.). SYBR Green (Applied Biosystems Inc, Foster City, Calif.) fluorescence was used to measure the product of qPCR. Glyceraldehyde 3-phosphate dehydrogenase (GAPDH) was used as the housekeeping gene, and the Applied Biosystems 7900HT Fast Real-Time PCR System (Applied Biosystems Inc, Foster City, Calif.) was used as described previously (Saw et al., Biochem Pharmacol 2010; 79: 421-430) to detect quantitatively the induction of mRNA of Nrf2, phase II DME GSTm2, NAD (P)H dehydrogenase, quinone 1 (NQO1), UGT family, polypeptide A1 (UGT1A1) and antioxidant enzymes HO-1, superoxide dismutase 1 (SOD1). The primer pairs were designed using the Primer Quest Oligo Design and Analysis Tool by Integrated DNA Technologies Inc. (Coralville, Iowa, USA) and the sequences are listed in Table 4. At least four wells of each treatment were performed and duplicate samples were carried out for each treatment.

Nrf2 = experiment: qPCR mRNA expression in HepG2-C8 cells; type: cell-based, human; settings: 25 μM, 6 h, vs 0.1% DMSO
Procedure: as §1

[1] = test system: first 5 CpGs of Nrf2 gene promoter; experiment: Methylated DNA immunoprecipitation (MeDIP) in TRAMP C1 cells; type: cell-based, mouse
Procedure: The DIM used in the study contains approximately 98% of DIM purchased from Sigma-Aldrich t St. Louis, Mo., USA), TRAMP C1 cells (provided by Dr. Barbara Foster, Department of Pharmacology and Therapeutics, Roswell Park Cancer institute, Buffalo. NY), originally derived from TRAMP prostate tumor, were cultured in Dulbecco's Modified Eagle's Medium (Invitrogen Corp., Carlsbad, Calif. U.S.A.) supplemented with 10% (V/V) fetal bovine serum (FBS) (Invitrogen Corp., Grand Island, N.Y., U.S.A.), penicillin 100 U/ml, and streptomycin 100 μg/ml (Invitrogen Corp., Grand Island, N.Y., U.S.A.), Cells were maintained in a humidified incubator with 5% CO2 at 37° C. Cells were seeded in 10 cm plates for 24 h and then treated with 0.1% DMSO (control) or different concentrations of DIM in 1% FBS containing medium for 5 days. The medium was changed every 2 days (20),
Genomic DNA (8 μg each) extracted from control and DIM treated TRAMP C1 cells were used for the MeDIP analysis, analogous to other chromatin immuno-precipitation (ChIP) analysis. The DNAs were adjusted to 150 μl using TE buffer in DNA. LoBind tubes. DNAs were fragmented by sonication on ice-water using a Bioruptor sonicator (Diagnode Inc., Sparta, N.J., U.S.A.) and the size of sheared DNA fragment (around 300 to 500 bp) was checked by gel electrophoresis. […]

[2] = test system: antioxidant response element (ARE); experiment: ARE-luciferase reporter assay with combination index calculation; type: cell-based, human
Procedure: The stably transfected single clone HepG2-ARE-C8 (HepG2-C8) cell line has been established previously in our laboratory using the […]-luciferase reporter gene. The cells were maintained in Dulbecco's modified Eagle medium supplemented with 10% fetal bovine serum (FBS), 1.17 g/l sodium bicarbonate, and 100 unit/ml penicillin, 100 μg/ml streptomycin at 37° C. in a humidified incubator with 5% CO2. The HepG2-C8 cells were cultured in 12-well plates and each well contained 1 million cells in 1 ml of 10% FRS medium. The cells were treated with compounds for 24 h. The luciferase activity was determined using a luciferase kit from Promega (Madison, USA) according to the manufacturer's instructions. Briefly, after treatments for 24 h, the cells were washed twice with ice-cold phosphate buffered-saline (PBS, pH 7.4) and harvested in 1× reporter lysis buffer and […]. After centrifugation at 4° C., 12000 rpm for 5 min, a 10 μl aliquot of the supernatant was assayed for luciferase activity with a Sirius luminometer (Berthold Detection System GmbH, Pforzheim, Germany). The luciferase activity was normalized against protein concentration, determined by a BCA protein assay (Pierce, Rockford, USA), and expressed as the fold induction over the luciferase activity of control vehicle-treated cells. At least two to three independent studies were conducted in triplicates. To determine the synergistic effect between the combination of two different compounds, the combination index (CI) was calculated with the following formula: […] This approach is based on the Loewe additivity model and although the exact mechanism of interaction may be unknown, this model is one of the most commonly used reference models for evaluating potential drug-drug interactions Lee et al., J Biopharm Stat 2007; 17: 461-480).

c1ccc2c(Cc3c[nH]c4ccccc34)c[nH]c2c1 [DIM, 3,3′-diindolylmethane]
HO-1 mRNA induction over control (HO-1): ~3 fold | Nrf2 mRNA induction over control (Nrf2): ~3 fold | methylated DNA bound by anti-mecyt antibody [1]: reduced | induction of ARE-luciferase ([2]; 75 μM, 24 h, compared with any other treatment (p<0.05)): strongly induced | induction of ARE-luciferase ([2]; doses lower than 25 μM, 10% FBS medium (data not shown)): no significant induction

From patent US8916604B2, “Compositions and methods for epigenetic modification of nucleic acid sequences” (Rutgers, The State University of New Jersey, priority 2011, dated 2014)
